Reference: article PMC9684079, “Pharmacological targeting of glutamatergic neurons within the brainstem for weight reduction” (Nature Metabolism, 2022)

What was measured:
Assay in all cases: biochemical
Settings in all cases: read-out: % Inhibition
[1] = molecular target: Protein Serine/Threonine Kinase, MAPK8 (JNK1) (Homo sapiens, UniProt P45983); set-up: Cerep/Eurofins selectivity panel, enzymes, per cent inhibition at 10 uM
APJ = molecular target: T1, APJ (Homo sapiens, UniProt P35414); set-up: Cerep/Eurofins selectivity panel, receptors, channels and transporters, per cent inhibition at 10 uM
T1 construct: gene APLNR

Adenosine A3 = molecular target: T2, Adenosine A3 (Homo sapiens, UniProt P0DMS8); set-up: Cerep/Eurofins selectivity panel, receptors, channels and transporters, per cent inhibition at 10 uM
T2 construct: gene ADORA3

Adrenergic β3 = molecular target: T3, Adrenergic β3 (Homo sapiens, UniProt P13945); set-up: Cerep/Eurofins selectivity panel, receptors, channels and transporters, per cent inhibition at 10 uM
T3 construct: gene ADRB3
T3 sequence (P13945 whole entry): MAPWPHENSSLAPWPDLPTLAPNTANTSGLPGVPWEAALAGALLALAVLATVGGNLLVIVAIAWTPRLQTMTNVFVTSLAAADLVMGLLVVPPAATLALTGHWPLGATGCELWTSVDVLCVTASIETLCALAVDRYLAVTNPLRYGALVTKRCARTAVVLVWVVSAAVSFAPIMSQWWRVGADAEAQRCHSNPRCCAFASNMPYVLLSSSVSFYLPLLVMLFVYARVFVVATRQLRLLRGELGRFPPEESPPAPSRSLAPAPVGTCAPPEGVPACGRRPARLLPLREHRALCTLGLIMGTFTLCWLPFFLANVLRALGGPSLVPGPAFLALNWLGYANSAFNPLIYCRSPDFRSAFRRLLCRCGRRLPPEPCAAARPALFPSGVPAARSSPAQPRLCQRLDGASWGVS

Bradykinin B2 = molecular target: T4, Bradykinin B2 (Homo sapiens, UniProt P30411); set-up: Cerep/Eurofins selectivity panel, receptors, channels and transporters, per cent inhibition at 10 uM
T4 construct: gene BDKRB2

Cholecystokinin CCK1 = molecular target: T5, Cholecystokinin CCK1 (Homo sapiens, UniProt P32238); set-up: Cerep/Eurofins selectivity panel, receptors, channels and transporters, per cent inhibition at 10 uM
T5 construct: gene CCKAR
T5 sequence (P32238 whole entry): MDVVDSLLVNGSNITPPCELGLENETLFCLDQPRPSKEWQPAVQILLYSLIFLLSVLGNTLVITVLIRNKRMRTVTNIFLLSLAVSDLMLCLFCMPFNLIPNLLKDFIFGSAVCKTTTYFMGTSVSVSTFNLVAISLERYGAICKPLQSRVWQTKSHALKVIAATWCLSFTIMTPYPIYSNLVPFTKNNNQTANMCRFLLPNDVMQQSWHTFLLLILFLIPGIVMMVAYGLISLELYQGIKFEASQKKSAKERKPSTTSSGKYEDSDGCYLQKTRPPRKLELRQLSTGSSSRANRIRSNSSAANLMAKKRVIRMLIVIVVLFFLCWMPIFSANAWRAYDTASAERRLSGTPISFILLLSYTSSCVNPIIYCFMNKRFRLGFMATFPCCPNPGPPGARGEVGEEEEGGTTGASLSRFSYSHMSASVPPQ

Dopamine D1 = molecular target: T6, Dopamine D1 (Homo sapiens, UniProt P21728); set-up: Cerep/Eurofins selectivity panel, receptors, channels and transporters, per cent inhibition at 10 uM
T6 construct: gene DRD1

Dopamine D2L = molecular target: T7, Dopamine D2L (Homo sapiens, UniProt P14416); set-up: Cerep/Eurofins selectivity panel, receptors, channels and transporters, per cent inhibition at 10 uM
T7 construct: gene DRD2; long isoform D2L
T7 sequence (P14416 whole entry, canonical isoform): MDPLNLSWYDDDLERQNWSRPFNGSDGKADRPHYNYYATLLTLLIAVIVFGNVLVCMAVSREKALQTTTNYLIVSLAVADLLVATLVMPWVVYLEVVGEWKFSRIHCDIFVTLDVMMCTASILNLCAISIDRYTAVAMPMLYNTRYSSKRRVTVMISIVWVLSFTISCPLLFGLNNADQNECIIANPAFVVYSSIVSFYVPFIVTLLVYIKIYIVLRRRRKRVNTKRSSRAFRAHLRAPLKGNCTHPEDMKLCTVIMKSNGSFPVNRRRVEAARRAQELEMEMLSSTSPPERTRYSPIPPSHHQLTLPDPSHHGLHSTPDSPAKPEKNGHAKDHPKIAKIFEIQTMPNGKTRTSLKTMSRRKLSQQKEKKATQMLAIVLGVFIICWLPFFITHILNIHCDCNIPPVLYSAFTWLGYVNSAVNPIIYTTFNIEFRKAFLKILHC

Dopamine D3 = molecular target: T8, Dopamine D3 (Homo sapiens, UniProt P35462); set-up: Cerep/Eurofins selectivity panel, receptors, channels and transporters, per cent inhibition at 10 uM
T8 construct: gene DRD3

Estrogen ERβ = molecular target: T9, Estrogen ERβ (Homo sapiens, UniProt Q92731); set-up: Cerep/Eurofins selectivity panel, receptors, channels and transporters, per cent inhibition at 10 uM
T9 construct: gene ESR2

GABAB1A = molecular target: T10, GABAB1A (Homo sapiens, UniProt Q9UBS5); set-up: Cerep/Eurofins selectivity panel, receptors, channels and transporters, per cent inhibition at 10 uM
T10 construct: gene GABBR1; isoform 1A

GABAB1B = molecular target: T11, GABAB1B (Homo sapiens, UniProt Q9UBS5); set-up: Cerep/Eurofins selectivity panel, receptors, channels and transporters, per cent inhibition at 10 uM
T11 construct: gene GABBR1; isoform 1B

Histamine H2 = molecular target: T12, Histamine H2 (Homo sapiens, UniProt P25021); set-up: Cerep/Eurofins selectivity panel, receptors, channels and transporters, per cent inhibition at 10 uM
T12 construct: gene HRH2

Histamine H3 = molecular target: T13, Histamine H3 (Homo sapiens, UniProt Q9Y5N1); set-up: Cerep/Eurofins selectivity panel, receptors, channels and transporters, per cent inhibition at 10 uM
T13 construct: gene HRH3
T13 sequence (Q9Y5N1 whole entry): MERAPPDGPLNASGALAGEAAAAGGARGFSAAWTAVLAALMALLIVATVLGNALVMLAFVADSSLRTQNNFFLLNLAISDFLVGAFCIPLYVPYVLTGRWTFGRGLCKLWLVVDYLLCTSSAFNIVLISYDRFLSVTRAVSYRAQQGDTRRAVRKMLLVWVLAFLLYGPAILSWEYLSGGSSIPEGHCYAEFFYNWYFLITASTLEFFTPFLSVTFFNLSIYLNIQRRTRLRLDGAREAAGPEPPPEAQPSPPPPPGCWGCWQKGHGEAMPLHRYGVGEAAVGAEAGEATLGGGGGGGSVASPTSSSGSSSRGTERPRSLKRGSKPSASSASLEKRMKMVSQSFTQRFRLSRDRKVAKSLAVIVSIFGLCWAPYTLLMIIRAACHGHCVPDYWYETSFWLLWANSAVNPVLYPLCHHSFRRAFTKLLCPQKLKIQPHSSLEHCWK

Progesterone PR-B = molecular target: T14, Progesterone PR-B (Homo sapiens, UniProt P06401); set-up: Cerep/Eurofins selectivity panel, receptors, channels and transporters, per cent inhibition at 10 uM
T14 construct: gene PGR; PR-B isoform

[2] = molecular target: T15, Serotonin (5-Hydroxytryptamine) 5-HT2B (Homo sapiens, UniProt P41595); set-up: Cerep/Eurofins selectivity panel, receptors, channels and transporters, per cent inhibition at 10 uM
T15 construct: gene HTR2B
T15 sequence (P41595 whole entry): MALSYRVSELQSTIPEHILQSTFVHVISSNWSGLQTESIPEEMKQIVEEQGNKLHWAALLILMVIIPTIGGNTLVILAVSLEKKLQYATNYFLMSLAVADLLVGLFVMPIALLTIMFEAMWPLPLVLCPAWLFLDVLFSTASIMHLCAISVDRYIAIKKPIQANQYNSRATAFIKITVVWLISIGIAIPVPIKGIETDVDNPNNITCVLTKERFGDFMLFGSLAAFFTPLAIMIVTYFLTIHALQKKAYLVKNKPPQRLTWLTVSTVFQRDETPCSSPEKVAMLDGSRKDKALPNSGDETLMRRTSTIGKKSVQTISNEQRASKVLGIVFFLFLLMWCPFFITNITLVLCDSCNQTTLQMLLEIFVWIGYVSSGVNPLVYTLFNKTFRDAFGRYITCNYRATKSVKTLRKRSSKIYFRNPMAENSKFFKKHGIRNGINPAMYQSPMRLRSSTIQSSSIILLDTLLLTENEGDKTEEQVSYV

[3] = molecular target: T16, Serotonin (5-Hydroxytryptamine) 5-HT3 (Homo sapiens, UniProt P46098); set-up: Cerep/Eurofins selectivity panel, receptors, channels and transporters, per cent inhibition at 10 uM
T16 construct: gene HTR3A
T16 sequence (P46098 whole entry): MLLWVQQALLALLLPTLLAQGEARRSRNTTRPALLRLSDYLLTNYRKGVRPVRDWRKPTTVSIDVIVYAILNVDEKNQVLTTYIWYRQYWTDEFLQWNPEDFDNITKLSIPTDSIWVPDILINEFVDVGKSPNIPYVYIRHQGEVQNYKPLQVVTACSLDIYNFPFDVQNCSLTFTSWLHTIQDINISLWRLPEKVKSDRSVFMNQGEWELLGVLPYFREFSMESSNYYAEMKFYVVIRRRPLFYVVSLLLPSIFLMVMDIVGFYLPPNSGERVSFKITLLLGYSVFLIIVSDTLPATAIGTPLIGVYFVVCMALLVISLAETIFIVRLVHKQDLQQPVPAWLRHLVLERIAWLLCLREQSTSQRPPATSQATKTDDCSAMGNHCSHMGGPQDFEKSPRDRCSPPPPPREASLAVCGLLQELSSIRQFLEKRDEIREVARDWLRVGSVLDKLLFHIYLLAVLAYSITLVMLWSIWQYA

Tachykinin NK2 = molecular target: T17, Tachykinin NK2 (Homo sapiens, UniProt P21452); set-up: Cerep/Eurofins selectivity panel, receptors, channels and transporters, per cent inhibition at 10 uM
T17 construct: gene TACR2
T17 sequence (P21452 whole entry): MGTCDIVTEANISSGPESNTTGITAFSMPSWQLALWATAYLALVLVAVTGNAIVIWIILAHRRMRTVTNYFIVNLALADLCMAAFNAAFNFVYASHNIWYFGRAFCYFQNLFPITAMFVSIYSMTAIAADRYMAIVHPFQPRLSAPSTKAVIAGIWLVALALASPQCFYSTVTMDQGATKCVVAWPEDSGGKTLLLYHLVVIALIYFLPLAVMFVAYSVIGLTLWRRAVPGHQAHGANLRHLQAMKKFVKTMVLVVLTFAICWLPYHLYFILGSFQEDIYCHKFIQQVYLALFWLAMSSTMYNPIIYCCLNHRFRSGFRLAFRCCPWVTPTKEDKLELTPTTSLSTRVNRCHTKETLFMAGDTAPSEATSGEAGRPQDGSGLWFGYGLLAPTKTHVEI

Tachykinin NK3 = molecular target: T18, Tachykinin NK3 (Homo sapiens, UniProt P29371); set-up: Cerep/Eurofins selectivity panel, receptors, channels and transporters, per cent inhibition at 10 uM
T18 construct: gene TACR3
T18 sequence (P29371 whole entry): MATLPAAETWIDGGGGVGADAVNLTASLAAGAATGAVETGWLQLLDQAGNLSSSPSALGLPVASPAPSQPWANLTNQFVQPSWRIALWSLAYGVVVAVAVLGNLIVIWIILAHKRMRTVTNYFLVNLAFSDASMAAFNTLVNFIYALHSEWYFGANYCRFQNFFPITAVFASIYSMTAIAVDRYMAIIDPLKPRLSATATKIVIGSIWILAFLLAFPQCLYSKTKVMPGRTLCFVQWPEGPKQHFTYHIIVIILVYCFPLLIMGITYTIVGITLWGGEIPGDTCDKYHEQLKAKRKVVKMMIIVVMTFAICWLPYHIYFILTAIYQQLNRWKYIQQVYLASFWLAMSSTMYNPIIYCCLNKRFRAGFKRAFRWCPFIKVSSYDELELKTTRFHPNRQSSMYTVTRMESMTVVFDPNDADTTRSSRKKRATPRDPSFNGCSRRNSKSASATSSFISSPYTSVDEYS

[4] = molecular target: T19, Transporter, Dopamine (DAT) (Homo sapiens, UniProt Q01959); set-up: Cerep/Eurofins selectivity panel, receptors, channels and transporters, per cent inhibition at 10 uM
T19 construct: gene SLC6A3
T19 sequence (Q01959 whole entry): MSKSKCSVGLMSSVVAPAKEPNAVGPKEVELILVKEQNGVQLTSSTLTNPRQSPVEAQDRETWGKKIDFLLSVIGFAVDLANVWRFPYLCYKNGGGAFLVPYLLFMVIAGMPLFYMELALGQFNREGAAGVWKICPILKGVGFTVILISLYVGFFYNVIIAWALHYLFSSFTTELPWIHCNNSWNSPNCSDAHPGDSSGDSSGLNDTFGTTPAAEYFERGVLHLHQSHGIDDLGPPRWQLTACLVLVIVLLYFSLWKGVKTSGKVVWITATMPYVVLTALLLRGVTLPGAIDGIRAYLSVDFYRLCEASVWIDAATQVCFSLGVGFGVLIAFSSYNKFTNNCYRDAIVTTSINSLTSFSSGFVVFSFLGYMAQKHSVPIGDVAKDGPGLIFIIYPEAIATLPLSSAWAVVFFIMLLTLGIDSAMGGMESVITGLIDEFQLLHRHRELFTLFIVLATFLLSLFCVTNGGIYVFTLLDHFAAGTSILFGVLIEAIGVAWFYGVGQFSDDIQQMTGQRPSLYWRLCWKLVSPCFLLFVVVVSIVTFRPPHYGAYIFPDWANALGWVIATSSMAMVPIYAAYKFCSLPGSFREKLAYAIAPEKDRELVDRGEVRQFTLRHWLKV

[5] = molecular target: T20, Transporter, Serotonin (SERT) (Homo sapiens, UniProt P31645); set-up: Cerep/Eurofins selectivity panel, receptors, channels and transporters, per cent inhibition at 10 uM
T20 construct: gene SLC6A4

Vasopressin V1a = molecular target: T21, Vasopressin V1a (Homo sapiens, UniProt P37288); set-up: Cerep/Eurofins selectivity panel, receptors, channels and transporters, per cent inhibition at 10 uM
T21 construct: gene AVPR1A

[6] = molecular target: T22, Protein Tyrosine Kinase, ZA70 (ZAP-70) (Homo sapiens, UniProt P43403); set-up: Cerep/Eurofins selectivity panel, enzymes, per cent inhibition at 10 uM
T22 construct: gene ZAP70

[7] = molecular target: T23, Peptidase, Matrix metalloprotease, neutral endopeptidase (Homo sapiens, UniProt P08473); set-up: Cerep/Eurofins selectivity panel, enzymes, per cent inhibition at 10 uM
T23 construct: gene MME
T23 sequence (P08473 whole entry): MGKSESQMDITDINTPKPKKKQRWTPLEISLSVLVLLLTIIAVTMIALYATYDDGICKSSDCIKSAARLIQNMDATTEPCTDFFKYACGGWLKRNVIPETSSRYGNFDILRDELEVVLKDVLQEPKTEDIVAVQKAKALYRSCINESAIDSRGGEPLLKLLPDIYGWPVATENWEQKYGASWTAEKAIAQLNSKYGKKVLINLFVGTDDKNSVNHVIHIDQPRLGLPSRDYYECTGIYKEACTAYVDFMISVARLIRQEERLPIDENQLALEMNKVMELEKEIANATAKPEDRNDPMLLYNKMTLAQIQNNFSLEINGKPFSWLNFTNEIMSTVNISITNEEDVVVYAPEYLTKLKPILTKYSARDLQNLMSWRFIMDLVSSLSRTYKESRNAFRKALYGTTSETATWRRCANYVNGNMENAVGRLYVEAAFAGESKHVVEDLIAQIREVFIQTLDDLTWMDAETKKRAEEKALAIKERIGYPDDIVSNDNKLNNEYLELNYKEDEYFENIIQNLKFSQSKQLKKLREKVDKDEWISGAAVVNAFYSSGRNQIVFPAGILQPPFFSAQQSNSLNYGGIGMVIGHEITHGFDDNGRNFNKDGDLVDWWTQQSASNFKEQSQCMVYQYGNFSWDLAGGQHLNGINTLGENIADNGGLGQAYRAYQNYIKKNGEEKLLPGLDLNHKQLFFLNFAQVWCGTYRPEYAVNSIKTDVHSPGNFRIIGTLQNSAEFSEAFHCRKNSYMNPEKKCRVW

`C[C@]1(Nc2cnc(C(F)(F)F)cn2)CCC[C@@H]1NC(=O)c1ncccc1-n1nccn1` [CVN45502] showed an inhibition at 10 µM [1] of 6%, an inhibition at 10 µM (APJ) of -4% and an inhibition at 10 µM (Adenosine A3) of -2%. For the same compound, the inhibition at 10 µM (Adrenergic β3) was 0%, the inhibition at 10 µM (Bradykinin B2) was -18% and the inhibition at 10 µM (Cholecystokinin CCK1) was -18%. The inhibition at 10 µM (Dopamine D1) was 2%, the inhibition at 10 µM (Dopamine D2L) was 7% and the inhibition at 10 µM (Dopamine D3) was -2%. It also gave an inhibition at 10 µM (Estrogen ERβ) of 4%, an inhibition at 10 µM (GABAB1A) of -8% and an inhibition at 10 µM (GABAB1B) of -1%. The inhibition at 10 µM (Histamine H2) was -14%, the inhibition at 10 µM (Histamine H3) was -4% and the inhibition at 10 µM (Progesterone PR-B) was 21%. It also gave an inhibition at 10 µM [2] of 4%, an inhibition at 10 µM [3] of -9% and an inhibition at 10 µM (Tachykinin NK2) of -8%. For the same compound, the inhibition at 10 µM (Tachykinin NK3) was 27%, the inhibition at 10 µM [4] was 4% and the inhibition at 10 µM [5] was 7%. For the same compound, the inhibition at 10 µM (Vasopressin V1a) was -14%, the inhibition at 10 µM [6] was -1% and the inhibition at 10 µM [7] was 4%.
